Results from US8470856B2, “Anthranilamide compounds, process for their production and pesticides containing them” (Ishihara Sangyo Kaisha, Ltd., priority 2004, dated 2013).
Where “and” joins values, the source holds several entries; their conditions need not be identical. Identical values can stand only once.

Experiments:
Format in all cases: in vivo
[1] = test system: Haemaphysalis longicornis; assay: Controlling effects against Haemaphysalis longicornis, knockdown of larval ticks in treated petri dish; conditions: 1 ml acetone solution 10 μg/ml on petri dish, 25° C., operation repeated twice (two values)
Method: Test on Controlling Effects Against Haemaphysalis longicornis
On an inner surface of a petri dish having diameter of 9 cm, 1 ml of an acetone solution of a sample compound (concentration: 10 μg/ml) was dropwise applied by a micropipette. On the other hand, as a control section, 1 ml of acetone was dropwise applied in the same manner. The inner surface of the petri dish was dried, and then about 100 larval ticks were put, and the petri dish was covered with a polyethylene sheet and sealed with an elastic band. Thereafter, except for the observation time, the petri dish was left to stand at a constant temperature of 25° C. under a relative humidity of 100% and under a constantly dark condition. The observation was carried out every time after putting the larval ticks in the petri dish (after 5 minutes, 10 minutes, 15 minutes, 20 minutes, 30 minutes, 45 minutes, 1 hour, 2 hours, 4 hours, 6 hours and 24 hours). The number of knockdown ticks after the contact with the insecticidal compound was recorded. The foregoing operation was repeated twice.
The knockdown rate at each observation time was corrected by the following abbott correction formula. Then, a probit-time linear line was drawn, and the median knockdown time (KT50 value) was obtained. With respect to the KT50 values of the respective sample compounds, they were 9 minutes and 8 minutes with the above-mentioned compound No. 3, and 7.5 minutes and 6 minutes with the above-mentioned compound No. 9, while they were 80 minutes and 40 minutes with the following comparative compound A and 120 minutes and 80 minutes with the following comparative compound B. Corrected knockdown rate(%)=[(non-knockdown rate in control section−non-knockdown rate in treated section)/non-knockdown rate in control section]×100

[2] = test system: Common Cutworm (Spodoptera litura); assay: Controlling effects against common cutworm, cabbage leaf dip; conditions: foliar, 120 h
Source text: Test on Controlling Effects Against Common Cutworm (Spodoptera litura)
A leaf segment of cabbage was dipped for about 10 seconds in an insecticidal solution prepared to bring the concentration of the compound of the present invention to 50 ppm or 3.1 ppm and dried in air. A wet filter paper was laid in a petri dish having a diameter of 9 cm, and the dried leaf segment of cabbage was placed thereon. Ten second-third instar larvae common cutworm were released therein and after putting a cover, left in a constant temperature chamber at 25° C. with lightening. Dead larvae were counted 5 days after the release, and the mortality was calculated by the following equation. Here, moribund insects were counted as dead insects. […] Mortality(%)=(number of dead insects/number of released insects)×100

[3] = test system: Cat Flea (Ctenocephalides felis); assay: Controlling effects against cat flea, dry film in glass tube; conditions: 0.5 ml of 5.3 ppm acetone solution as dry film, adult fleas, 48 hours after exposure
Method: Test on Controlling Effects Against Cat Flea (Ctenocephalides felis)
0.5 ml of an acetone solution of the compound of the present invention prepared to be 5.3 ppm was dropped in a glass tube having a flat bottom (inner diameter: 2.6 cm, bottom area: 5.3 cm^2, height 12 cm). The acetone was evaporated at room temperature to have a dry film containing the compound of the present invention formed on the bottom surface. Ten adults of cat flea (not-yet-blood-sucked adults within five days after adult emergence) were put therein and exposed to the compound of the present invention. The test was carried out continuously three times.
Dead cat flea were counted 48 hours after the exposure and the mortality was obtained in the same manner as in the above Test Example 1.

Structure (SMILES)	median knockdown time (KT50 value) [1]	further results
Cc1cc(Cl)cc(C(=O)NC(C)C)c1NC(=O)c1cc(C(F)(F)F)nn1-c1ncccc1Cl [comparative compound A, reference compound]	80 min and 40 min	–
Cc1cc(Cl)cc(C(=O)NC(C)C)c1NC(=O)c1cc(Br)nn1-c1ncccc1Cl [comparative compound B, reference compound]	120 min and 80 min	–
Cc1cccc(C(=O)NCC2CC2)c1NC(=O)c1cc(C(F)(F)F)nn1-c1ncccc1Cl [compound No. 1, N-[6-[[(cyclopropylmethyl)amino]carbonyl]-2-methylphenyl]-1-(3-chloro-2-pyridyl)-3-(trifluoromethyl)-1H-pyrazol-5-carboxamide]	–	mortality at 3.1 ppm [2]: ≥ 90%
Cc1cc(Cl)cc(C(=O)NC(C)C2CC2)c1NC(=O)c1cc(C(F)(F)F)nn1-c1ncccc1Cl (stereo not drawn) [compound No. 3, N-[4-chloro-2-methyl-6-[[α-methyl-(cyclopropylmethyl)amino]carbonyl]-phenyl]-3-(trifluoromethyl)-1-(3-chloro-2-pyridyl)-1H-pyrazol-5-carboxamide]	9 min and 8 min	–
Cc1cc(Cl)cc(C(=O)NC(C)C2CC2)c1NC(=O)c1cc(Br)nn1-c1ncccc1Cl (stereo not drawn) [compound No. 9, N-[4-chloro-2-methyl-6-[[α-methyl-(cyclopropylmethyl)amino]carbonyl]-phenyl]-3-bromo-1-(3-chloro-2-pyridyl)-1H-pyrazol-5-carboxamide]	7.5 min and 6 min	–
CC(NC(=O)c1cc(Cl)cc(Br)c1NC(=O)c1cc(Br)nn1-c1ncccc1Cl)C1CC1 (stereo not drawn) [compound No. 16, N-[2-bromo-4-chloro-6-[[α-methyl-(cyclopropylmethyl)amino]carbonyl]-phenyl]-3-bromo-1-(3-chloro-2-pyridyl)-1H-pyrazol-5-carboxamide]	–	mortality [3]: at least 90%
